Experimental findings from patent US7297790B2, “Anhydrous mirtazapine crystals and process for preparing the same” (Sumitomo Chemical Company, Limited, priority 1999, dated 2007) are described below.

The series is described as follows: Hygroscopic degree of crystals stored at constant temperature and humidity (petri dish, weight gain). Format: physicochemical. The note with it: 75% relative humidity, chamber temperature 25° C., after 500 hours; compared with Comparative Example 3. The method, then: Next, the mirtazapine crystals obtained in Example 7 and Comparative Example 3 were placed on a petri dish, and the petri dish was placed in a constant temperature and humidity of 75% relative humidity and a chamber temperature of 25° C., and the change in the hygroscopic degree of the crystals was evaluated. Incidentally, the hygroscopic degree is calculated by the following equation: [Hygroscopic Degree (% by weight)]=[(Weight (g) of Crystals After Treatment)−(Weight (g) of Crystals Before Treatment)]÷[Weight (g) of Crystals Before Treatment]×100

On to `CN1CCN2c3ncccc3Cc3ccccc3C2C1` (stereo not shown) [Example 7, anhydrous mirtazapine], for which the “hygroscopic degree with the passage of time (FIG. 2), in words” value is given as “very low”.
